According to patent publication US7968526B2, “Antisense oligonucleotides directed to ribonucleotide reductase R2 and uses thereof in the treatment of cancer” (Lorus Therapeutics Inc., priority 2003, dated 2011):
Entries after “also recorded” stand apart in the source; their conditions may differ.

Columns and labels:
[1] = tested on: Caki-1 human renal cancer cells; assay: Caki-1 renal tumour xenograft, combination with 5-FU or vinblastin (1.3); type: in vivo, human cells in mice
Text: All treatments were stopped at day 22. […] All treatments were stopped at day 32. […] All treatments were stopped at day 36.

[2] = tested on: BxPC-3 human pancreatic carcinoma cells; assay: BxPC-3 gemcitabine resistant pancreatic carcinoma xenograft in CD-1 nude mice; type: in vivo, human cells in mice; details: Gemcitabine 100 mg/kg i.v. every three days
Experimental: BxPC-3 is a gemcitabine resistant call line. […] Gemcitabine was administered intravenously every three days at a dose of 100 mg/kg. Antitumour activities were estimated by the inhibition of tumour volume, which was measured with caliper. Each point represents mean tumour volume calculated from 10 animals per experimental group. […] Hela S3 is a hydroxyurea resistant cell line. […] Hydroxyurea was administered intraperitoneally every day at a dose of 250 mg/kg for 10 days. Cisplatin was administered intravenously once a week for three weeks at a dose of 4 mg/kg. Antitumour activities were estimated by the inhibition of tumour volume, which was measured with caliper. Each point represents mean tumour volume calculated from 10 animals per experimental group. […] Cisplatin was administered intravenously once a week for three weeks at a dose of 4 mg/kg. Taxol was administered intravenously once a week for three weeks at a dose of 10 mg/kg. Antitumour activities were estimated by the inhibition of tumour volume, which was measured with caliper. Each point represents mean tumour volume calculated from 10 animals per experimental group. […] Taxol was administered i.p. once a week at a dose of 10 mg/kg. Antitumour activities were estimated by the inhibition of tumour volume (FIG. 12A), which was measured with calipers. Each point represents mean tumour volume calculated from 10 animals per experimental group. Animals were sacrificed and tumour weights taken at the end of the study (FIG. 12C). […] Cisplatin was administered intravenously once a week for four weeks at a dose of 4 mg/kg. Taxol was administered intravenously once a week for four weeks at a dose of 20 mg/kg. Antitumour activities were estimated by the inhibition of tumour volume, which was measured with caliper. Each point represents mean tumour volume calculated from 9-10 animals per experimental group. […] Cisplatin was administered intravenously once a week for four weeks at a dose of 4 mg/kg. Antitumour activities were estimated by the inhibition of tumour volume, which was measured with caliper. Each point represents mean tumour volume calculated from 10 animals per experimental group. At the end of the study the animals were sacrificed and tumours weighed. […] Taxol was administered i.p. once a week at a dose of 10 mg/kg. Anti-tumour activity was estimated by the inhibition of tumour volume, which was measured with caliper. Each point represents mean tumour volume calculated from 10 animals per experimental group. […] Antitumour activities were estimated by the inhibition of tumour volume, which was measured with caliper. Each point represents mean tumour volume calculated from 10 animals per experimental group. Tumour weights were measured after animals were sacrificed at the end of the treatment. […]

[3] = tested on: MDA-CDDP-S4 human in vivo-selected Cisplatin-resistant breast adenocarcinoma cells; assay: MDA-CDDP-S4 Cisplatin-resistant breast adenocarcinoma, fat pad, SCID mice (2.3); set-up: species or system human cells in mice
Experimental: BxPC-3 is a gemcitabine resistant call line. […] Gemcitabine was administered intravenously every three days at a dose of 100 mg/kg. Antitumour activities were estimated by the inhibition of tumour volume, which was measured with caliper. Each point represents mean tumour volume calculated from 10 animals per experimental group. […] Hela S3 is a hydroxyurea resistant cell line. […] Hydroxyurea was administered intraperitoneally every day at a dose of 250 mg/kg for 10 days. Cisplatin was administered intravenously once a week for three weeks at a dose of 4 mg/kg. Antitumour activities were estimated by the inhibition of tumour volume, which was measured with caliper. Each point represents mean tumour volume calculated from 10 animals per experimental group. […] Cisplatin was administered intravenously once a week for three weeks at a dose of 4 mg/kg. Taxol was administered intravenously once a week for three weeks at a dose of 10 mg/kg. Antitumour activities were estimated by the inhibition of tumour volume, which was measured with caliper. Each point represents mean tumour volume calculated from 10 animals per experimental group. […] Taxol was administered i.p. once a week at a dose of 10 mg/kg. Antitumour activities were estimated by the inhibition of tumour volume (FIG. 12A), which was measured with calipers. Each point represents mean tumour volume calculated from 10 animals per experimental group. Animals were sacrificed and tumour weights taken at the end of the study (FIG. 12C). […] Cisplatin was administered intravenously once a week for four weeks at a dose of 4 mg/kg. Taxol was administered intravenously once a week for four weeks at a dose of 20 mg/kg. Antitumour activities were estimated by the inhibition of tumour volume, which was measured with caliper. Each point represents mean tumour volume calculated from 9-10 animals per experimental group. […] Cisplatin was administered intravenously once a week for four weeks at a dose of 4 mg/kg. Antitumour activities were estimated by the inhibition of tumour volume, which was measured with caliper. Each point represents mean tumour volume calculated from 10 animals per experimental group. At the end of the study the animals were sacrificed and tumours weighed. […] Taxol was administered i.p. once a week at a dose of 10 mg/kg. Anti-tumour activity was estimated by the inhibition of tumour volume, which was measured with caliper. Each point represents mean tumour volume calculated from 10 animals per experimental group. In addition animals were sacrificed and tumour weights taken at the end of the study. […] CPT-11 was administered i.p. for 5 days at a dose of 20 mg/kg/day. Antitumour activities were estimated by the inhibition of tumour volume, which was measured with caliper. Each point represents mean tumour volume calculated from 10 animals per experimental group. Tumour weights were measured after animals were sacrificed at the end of the treatment. These cells are not resistant to CPT-11 which was used as a positive control.

[4] = tested on: A498 human kidney cancer cells; assay: A498 kidney tumour growth in SCID mice (3.9); type: in vivo, human cells in mice
Experimental: Treatments lasted for 14 days thereafter. Antitumour activities were estimated by the inhibition of tumour volume, which was measured with a caliper on four different occasions over the treatment period. Each point represents mean tumour volume calculated from 5 animals per experimental group. […] Control animals (control) received saline alone for the same period. At the end of the treatments, the animals were sacrificed, tumours were excised and their weights were measured. Each bar represents mean tumour weight calculated from 6 animals per experimental group. […] Treatments lasted for 24 days thereafter. Antitumour activities were estimated by the inhibition of tumour volume, which was measured with a caliper at two-day intervals over the treatment period. Each point represents mean tumour volume calculated from 4 animals per experimental group. […] Treatments lasted for 24 days thereafter. Antitumour activities were estimated by the inhibition of tumour volume, which was measured with a caliper at two-day intervals over the treatment period. Each point represents mean tumour volume calculated from 4 animals per experimental group. […] Each point represents mean tumour volume calculated from 5 animals per experimental group. […] Antitumour activities were estimated by the inhibition of tumour volume, which was measured with a caliper on four different occasions over 16-day period. […]

[5] = tested on: Caki renal tumour xenografts; assay: Caki renal tumour xenografts in SCID/beige mice (immune stimulation); type: in vivo, human cells in mice; details: Caki renal tumour xenografts in SCID/beige mice (lack B, T and NK cell function)
Experimental: To directly determine whether SEQ ID NO:1 treatment results in CpG stimulation of NK-mediated anti-tumour activity, the efficacy of SEQ ID NO:1 on human tumour xenografts in SCID/beige mice was assessed (FIG. 32). SCID/beige mice lack B, T and NK cell function and as such these mice cannot mount a significant innate or acquired immune response.

“5′-GGCTAAATCGCTCCACCAAG-3′ (all phosphorothioate, sugars by position and methylation of C not given here) [SEQ ID NO: 1, fully phosphorothioated antisense oligonucleotide that hybridizes to the coding region of R2 mRNA]” was tested, and the “Tumour weight as % of saline control” value ([1]; Caki (renal), CD-1 mouse as printed, SEQ ID NO:1 10 mg/kg i.v. every other day, 5-FU 13 mg/kg/day i.p., vinblastin 0.6 mg/kg/week i.p.) was 3.3%, the “Antitumour effect (tumour weight, FIG. 3A)” value ([1]; Caki-1, SCID mice, SEQ ID NO:1 10 mg/kg i.v. every other day, 5-FU 13 mg/kg/day i.p., vinblastin 0.6 mg/kg/week i.p.) was “significant delay of tumour growth compared to saline control; also recorded: superior to the inhibitory effects observed with each of two chemotherapeutic compounds” and the “Inhibition of tumour size” value ([1]; Human Renal Carcinoma^2 (second entry of Table 5)) was “Approximately 97% inhibition of tumour size”. For the same substance, the “Tumour weight as % of saline control” value ([2]; BxPC-3 (pancreatic), Gemcitabine resistant, CD-1, SEQ ID NO:1 10 mg/kg i.v. every other day 17 times) was 5.8%, the “Antitumour effect (tumour volume, FIG. 9)” value ([2]; BxPC-3 gemcitabine resistant, CD-1 nude mice, SEQ ID NO:1 10 mg/kg i.v. every other day) was “significant delay of tumour growth compared to saline control” and the “Tumour weight as % of saline control” value ([3]; MDA-CDDP-S4 (breast), Cisplatin resistant, SCID, SEQ ID NO:1 10 mg/kg i.v. every other day 9 times, Taxol 10 mg/kg, Cisplatin 4 mg/kg i.v. weekly x3) was 32%. The “Antitumour effect (FIG. 11)” value ([3]; MDA-CDDP-S4 Cisplatin-resistant, SCID mice, SEQ ID NO:1 10 mg/kg i.v. every other day, Cisplatin 4 mg/kg, Taxol 10 mg/kg i.v. weekly) was “significant reduction of tumour weight compared to saline control”, the “Inhibitory effect on tumour growth (tumour volume, FIG. 21B)” value ([4]; A498, SCID mice, 10 mg/kg i.v. every other day to day 52) was “powerful inhibitory effects on the growth of human renal carcinoma cells, resulting in total regression of the tumours” and the Tumour regression ([4]; Human Renal Carcinoma^2 (third entry of Table 5)) was “Complete regression of all tumours in treated”. The “Anti-tumour effect (FIG. 32)” value [5] was “effectively treated; also recorded: equivalent in extent and kinetics to that obtained in the SCID mouse model; also recorded: anti-tumour activity is specific to the R2 complementary sequence”.
